The record followed here is patent US11028066B2, “Inhibitors of lysine specific demethylase-1” (CELGENE QUANTICEL RESEARCH, INC., priority 2014, dated 2021).

Where only a bound is given, the exact number is not on record here.

One assay concerns Kasumi-1. The assay can be described thus: Kasumi-1 AML cell line proliferation assay (Cell-MTS assay). It is filed as cell-based. The settings on record: Homo sapiens, 168 hours incubation. An excerpt: Colorimetric cellular assay to assess the ability of LSD-1 small molecule inhibitors to effect the proliferation of the established AML cancer cell line Kasumi-1.
This Cell-MTS assay is a 7-day plate based colorimetric assay which quantifies the amount of newly generated NADH in the presence and absence of test compound. These NADH levels are used as a proxy for the quantification of cancer cell proliferation.
The established cancer cell line Kasumi-1 with a verified p53 mutation were purchased from American Type Culture Collection (ATCC) and routinely passaged according to ATCC published protocols. For routine assay these cells were seeded at a density of 20,000 cells per 96-well. 24 hours after plating, cells received an 11 point dilution of test compound with final concentration ranges from 100 μM to 2.0 nM. Cells are incubated in the presence of compound for 168 hours at 37° C., 5% CO2. At the end of this compound incubation period, 80 μl of media is removed and 20 μL of CellTiter 96® AQueous Non-Radioactive Cell Proliferation Assay solution (Promega) is added. The cells are incubated until the OD490 is >0.6. IC50 values are calculated using the IDBS XLfit software package and include background subtracted OD490 values and normalization to DMSO controls.
Table 5 provides the Kasumi-1 cellular IC50 values of various substituted heterocyclic compounds disclosed herein.

A further assay concerns THP-1 (AML) cells. Nature of the assay: LSD1 CD11b cellular assay (flow cytometry). In kind it is cell-based. The following applies: Homo sapiens, THP-1, 96 h; CD11b expressing cells, 4 days incubation. The protocol: To analyze LSD1 inhibitor efficacy in cells, a CD11b flow cytometry assay was performed. LSD1 inhibition induces CD11b expression in THP-1 (AML) cells which can be measured by flow cytometry. […] LSD1 test compounds were serially diluted in DMSO. The dilutions were added to each well accordingly to a final concentration of 0.2% DMSO. The cells were incubated at 37 degrees Celsius in 5% CO2 for 4 days. 250 μL of each well was transferred to a well in a 96 well round bottom plate. The plate was centrifuged at 1200 rpm at 4 degrees Celsius in a Beckman Coulter Alegra 6KR centrifuge for 5 minutes. The media was removed leaving the cells at the bottom of the wells. The cells were washed in 100 μL cold HBSS (Hank's Balanced Salt Solution) plus 2% BSA (Bovine Serum Albumin) solution and centrifuged at 1200 rpm at 4 degrees Celsius for 5 minutes. The wash was removed. […] The cells were centrifuged and washed two times in 100 μL HBSS plus 2% BSA. After the final spin the cells were resuspended in 100 μL HBSS plus 2% BSA containing 1 ug/mL DAPI (4′,6-diamidino-2-phenylindole). The cells were then analyzed by flow cytometry in a BD FACSAria machine. Cells were analyzed for CD11b expression. The percent of CD11b expressing cells for each inhibitor concentration was used to determine an IC50 curve for each compound analyzed.

Another assay concerns the target full-length human LSD1 (Homo sapiens (Human), UniProt O60341). Nature of the assay: In vitro enzyme inhibition assay LSD-1 (TR-FRET). In kind it is biochemical. The following applies: H3K4me1-biotin peptide. On the procedure:
This assay determines the ability of a test compound to inhibit LSD1 demethylase activity.
The enzymatic assay of LSD1 activity is based on Time Resolved-Fluorescence Resonance Energy Transfer (TR-FRET) detection.
Plates were read by EnVision Multilabel Reader in TR-FRET mode (excitation at 320 nm, emission at 615 nm and 665 nm) after 1 hour incubation at room temperature.
The ability of the compounds disclosed herein to inhibit LSD1 activity was quantified and the respective IC50 value was determined.

Turning to `Cn1c(-c2ccc3c(c2)ncn3C)c(-c2ccc(C#N)c(F)c2)nc(N2CCC(N)CC2)c1=O` [Example 60, 4-[6-(4-amino-piperidin-1-yl)-4-methyl-3-(1-methyl-1H-benzoimidazol-5-yl)-5-oxo-4,5-dihydro-pyrazin-2-yl]-2-fluoro-benzonitrile], the IC50 in the assay on Kasumi-1 was at most 100 nM; with THP-1 (AML) cells, under 100 nM; against full-length human LSD1, under 100 nM.
As to `COc1ccc(-c2c(-c3ccc(C#N)c(F)c3)cc(N3CCC(N)CC3)c(=O)n2C)cc1F` [Example 84, 4-[5-(4-aminopiperidin-1-yl)-2-(3-fluoro-4-methoxyphenyl)-1-methyl-6-oxopyridin-3-yl]-2-fluorobenzonitrile], the IC50 in the assay with Kasumi-1 was at most 100 nM; with THP-1 (AML) cells, under 100 nM; against full-length human LSD1, under 100 nM.
Turning to `Cc1ccc(-c2c(-c3ccc(C#N)c(F)c3)cc(N3CCC(N)CC3)c(=O)n2C)cc1` [Example 76, 4-[5-(4-aminopiperidin-1-yl)-1-methyl-2-(4-methylphenyl)-6-oxopyridin-3-yl]-2-fluorobenzonitrile], the IC50 in the assay with Kasumi-1 was at most 100 nM; in the assay with THP-1 (AML) cells, under 100 nM; on full-length human LSD1, under 100 nM.
Take `Cc1ccc(-c2c(-c3ccc(C#N)c(F)c3)nc(NC[C@H]3CCNC3)c(=O)n2CCO)cc1` [Example 44, 4-(6-{[((3S)-pyrrolidin-3-yl)methyl]amino}-4-(2-hydroxyethyl)-3-(4-methylphenyl)-5-oxo(4-hydropyrazin-2-yl))-2-fluorobenzenecarbonitrile]: the IC50 in the assay on Kasumi-1 is at most 100 nM; with THP-1 (AML) cells it was under 100 nM; against full-length human LSD1, under 100 nM.
With `Cn1c(-c2ccc(C3CC3)cc2)c(-c2ccc(C#N)c(F)c2)nc(N2CCC(N)CC2)c1=O` [Example 50, 4-[6-(4-amino-piperidin-1-yl)-3-(4-cyclopropyl-phenyl)-4-methyl-5-oxo-4,5-dihydro-pyrazin-2-yl]-2-fluoro-benzonitrile], the IC50 in the assay with THP-1 (AML) cells and against full-length human LSD1 was under 100 nM each time.
Turning to `N#Cc1ccc(-c2cn(Cc3cccc(F)c3)c(=O)c(N3CCC(N)CC3)n2)cc1` [Example 8, 4-[6-(4-aminopiperidin-1-yl)-4-[(3-fluorophenyl)methyl]-5-oxo-4,5-dihydropyrazin-2-yl]benzonitrile], the values for the IC50 with THP-1 (AML) cells and against full-length human LSD1 were 100 to 1000 nM and under 100 nM, respectively.
Taken in the same sequence, the figures for `COc1ccc(-c2c(-c3ccc(C#N)cc3)nc(NC[C@@H]3CCNC3)c(=O)n2C)cc1` [Example 32, 4-[3-(4-methoxyphenyl)-4-methyl-5-oxo-6-{[(3R)-pyrrolidin-3-ylmethyl]amino}-4,5-dihydropyrazin-2-yl]benzonitrile] were 100 to 1000 nM and under 100 nM.
Taken in the same sequence, the figures for `N#Cc1ccc(-c2cn(Cc3ccc(F)cc3)c(=O)c(N3CCC(N)CC3)n2)cc1` [Example 9, 4-[6-(4-aminopiperidin-1-yl)-4-[(4-fluorophenyl)methyl]-5-oxo-4,5-dihydropyrazin-2-yl]benzonitrile] were 100 to 1000 nM and under 100 nM.
In the same order, the values of `Cn1c(-c2ccc(OCC3CC3)cc2)c(-c2ccc(C#N)c(F)c2)nc(NC[C@H]2CCNC2)c1=O` [Example 61, 4-{3-(4-cyclopropylmethoxy-phenyl)-4-methyl-5-oxo-6-[((3S)-pyrrolidin-3-ylmethyl)-amino]-4,5-dihydro-pyrazin-2-yl}-2-fluoro-benzonitrile] are under 100 nM and under 100 nM.
With `N#Cc1ccc(-c2cn(CC3CCOCC3)c(=O)c(N3CCC(N)CC3)n2)cc1F` [Example 15, 4-[6-(4-amino-piperidin-1-yl)-5-oxo-4-(tetrahydro-pyran-4-ylmethyl)-4,5-dihydro-pyrazin-2-yl]-2-fluoro-benzonitrile], the IC50 in the assay on THP-1 (AML) cells was 100 to 1000 nM; at full-length human LSD1, under 100 nM.
Take `COc1ccc(-c2c(-c3ccc(C#N)nc3)cc(N3CCC(N)CC3)c(=O)n2C)cc1` [Example 68, 5-(5-(4-aminopiperidin-1-yl)-2-(4-methoxyphenyl)-1-methyl-6-oxo-1,6-dihydropyridin-3-yl)picolinonitrile]: the IC50 is 100 to 1000 nM in the assay on THP-1 (AML) cells and under 100 nM on full-length human LSD1.
In the same order, the values of `COc1ccc(-c2c(-c3ccc(C#N)c(F)c3)cc(N3CCC(N)CC3)c(=O)n2CC2CC2)cc1` [Example 85, 4-[5-(4-aminopiperidin-1-yl)-1-(cyclopropylmethyl)-2-(4-methoxyphenyl)-6-oxopyridin-3-yl]-2-fluorobenzonitrile] are under 100 nM and under 100 nM.
For `CNC1CCN(c2cc(-c3ccc(C#N)cc3)c(-c3ccc(OC)cc3)n(C)c2=O)CC1` [Example 78, 4-{2-(4-methoxyphenyl)-1-methyl-5-[4-(methylamino)piperidyl]-6-oxo-3-hydropyridyl}benzenecarbonitrile], the IC50 with THP-1 (AML) cells and against full-length human LSD1 was under 100 nM each time.
For `Cn1c(-c2ccc(C3CC3)cc2)c(-c2ccc(C#N)c(F)c2)nc(NC[C@H]2CCNC2)c1=O` [Example 59, 4-{3-(4-cyclopropyl-phenyl)-4-methyl-5-oxo-6-[((3S)-pyrrolidin-3-ylmethyl)-amino]-4,5-dihydro-pyrazin-2-yl}-2-fluoro-benzonitrile], the IC50 in the assay with THP-1 (AML) cells and against full-length human LSD1 was under 100 nM throughout.
For the molecule `CCOc1ccc(-c2c(-c3ccc(C#N)c(F)c3)nc(NC[C@H]3CCNC3)c(=O)n2C)cc1` [Example 62, 4-{3-(4-ethoxy-phenyl)-4-methyl-5-oxo-6-[((3S)-pyrrolidin-3-ylmethyl)-amino]-4,5-dihydro-pyrazin-2-yl}-2-fluoro-benzonitrile], the IC50 with THP-1 (AML) cells and against full-length human LSD1 was under 100 nM throughout.
As for `Cn1c(-c2ccc(C3CC3)cc2)c(-c2ccc(C#N)cc2)nc(NC[C@H]2CCNC2)c1=O` [Example 34, 4-[3-(4-cyclopropylphenyl)-4-methyl-5-oxo-6-{[(3S)-pyrrolidin-3-ylmethyl]amino}-4,5-dihydropyrazin-2-yl]benzonitrile], the IC50 was 100 to 1000 nM in the assay with THP-1 (AML) cells and under 100 nM on full-length human LSD1.
Taken in the same sequence, the figures for `Cc1ccc(Cn2cc(-c3ccc(C#N)cc3)nc(N3CCC(N)CC3)c2=O)cc1` [Example 2, 4-[6-(4-aminopiperidin-1-yl)-4-[(4-methylphenyl)methyl]-5-oxo-4,5-dihydropyrazin-2-yl]benzonitrile] were 100 to 1000 nM and under 100 nM.
With `CCc1ccc(-c2c(-c3ccc(C#N)nc3)cc(NC[C@H]3CCNC3)c(=O)n2C)cc1` [Example 71, (S)-5-(2-(4-ethylphenyl)-1-methyl-6-oxo-5-(pyrrolidin-3-ylmethylamino)-1,6-dihydropyridin-3-yl)picolinonitrile], the IC50 with THP-1 (AML) cells and on full-length human LSD1 was under 100 nM each time.
`CCc1ccc(-c2c(-c3ccc(C#N)c(F)c3)nc(NC[C@H]3CCNC3)c(=O)n2C)cc1` [Example 57, 4-{3-(4-ethyl-phenyl)-4-methyl-5-oxo-6-[((3S)-pyrrolidin-3-ylmethyl)-amino]-4,5-dihydro-pyrazin-2-yl}-2-fluoro-benzonitrile]: the IC50 with THP-1 (AML) cells and at full-length human LSD1 was under 100 nM throughout.
As for `Cn1c(-c2ccc(C3CC3)cc2)c(-c2ccc(C#N)nc2)cc(NC[C@H]2CCNC2)c1=O` [Example 73, (S)-5-(2-(4-cyclopropylphenyl)-1-methyl-6-oxo-5-(pyrrolidin-3-ylmethylamino)-1,6-dihydropyridin-3-yl)picolinonitrile], the IC50 in the assay with THP-1 (AML) cells and against full-length human LSD1 was under 100 nM in each case.
Regarding `Cc1ccc(-c2c(-c3ccc(C#N)cc3)nc(N3CCCC(N)C3)c(=O)n2C)cc1` (stereo not drawn) [Example 22, 4-[6-(3-aminopiperidin-1-yl)-4-methyl-3-(4-methylphenyl)-5-oxo-4,5-dihydropyrazin-2-yl]benzonitrile], the IC50 in the assay on THP-1 (AML) cells and against full-length human LSD1 was under 100 nM each time.
As for `COCCn1c(-c2ccc(C)cc2)c(-c2ccc(C#N)c(F)c2)nc(N2CCC(N)CC2)c1=O` [Example 41, 4-[6-(4-amino-piperidin-1-yl)-4-(2-methoxy-ethyl)-5-oxo-3-p-tolyl-4,5-dihydro-pyrazin-2-yl]-2-fluoro-benzonitrile], the IC50 with THP-1 (AML) cells and on full-length human LSD1 was under 100 nM each time.
